Measured values taken from paper PMC8398766, “Do Small Molecules Activate the TrkB Receptor in the Same Manner as BDNF? Limitations of Published TrkB Low Molecular Agonists and Screening for Novel TrkB Orthosteric Agonists” (Pharmaceuticals, 2021).
Converted amounts (≈) assume the structure as drawn. “Also recorded” adds a separate entry of the source.

How the values were obtained:
[1] = biological target: T1, TrkB receptor (Rattus norvegicus, UniProt Q63604); test: ELFI TrkB phosphorylation, orthosteric agonist mode, SN56 T48 cell line; type: cell-based; settings: 0.125–100 μM, 15 min
T1 construct: host or cells: SN56 T48 cell line
Protocol: The SN56 T48 cell line with stable overexpression of the TrkB receptor was purchased from Emory University (Atlanta, GA, USA) and cultivated according to the protocol described in Jang et al., 2010 [12]. The cell lines were cultivated with the following reagents: DMEM High Glucose, fetal bovine serum (FBS), Penicillin-Streptomycin Solution 100×, and Trypsin-EDTA 1×; all were purchased from Biowest, and G418 was from ThermoFisher Scientific. For the ELFI experiments, cells were seeded (8000/well) on a PDL-treated 96-well plate (BioCoat™, Corning Inc., Corning, NY, USA) and 6-well plate (400,000/well) for lysate collection and immunoblot analysis.
In the orthosteric agonist mode experiments, starved cells (5 h) were treated with compounds (0.125–100 μM; volume, 100 μL/well) or BDNF (0.01–10 nM; volume, 100 μL/well) dissolved in culture medium. In the allosteric modulation mode experiments, starved cells (5 h) were treated with final compound concentrations of 3, 10, and 30 μM; volume, 50 μL/well) in the presence of a rising concentration of BDNF (final concentration in well, 0.15–5 nM; volume, 50 μL/well). Corresponding treatment with DMSO (v/v) was performed for a control. Cells were treated for 15 min in both the orthosteric and allosteric modulation mode experiments.
The analysis of TrkB receptor activation was performed using the ELFI method adapted from Boltayev et al. (2017) with some modifications. After compound treatment, experiments were stopped by fixing cells with 10% buffered formalin (Kolchem, Lodz, Poland) for 20 min (volume, 100 μL/well). Afterwards, cells were permeabilized with washing buffer (TBS+ 0.1% Tween20) for 15 min, and endogenous peroxidases were quenched by 20 min of incubation with 1% H2O2 dissolved in TBS (each solution: volume, 100 μL/well). Epitopes were blocked with 10% BSA (Biowest) dissolved in washing buffer for 2 h (volume, 100 μL/well) and incubated with anti-pTrkB (Tyr707) primary antibody (Cell Signaling Technology, Danvers, MA, USA) diluted in washing buffer (1:500; overnight at 4 °C; volume, 100 μL/well). After repeated washing, cells were incubated with HRP-linked anti-rabbit antibody (Cell Signaling Technology) for 2 h (1:1000; RT; volume, 100 μL/well) and washed. The cells were then incubated with 100 μL of ImmunoCruz™ Western Blotting Luminol (Santa Cruz Biotechnology, Dallas, TX, USA) for 1 min in the dark, and the signals were measured using a microplate luminometer (VICTOR Light 1420-060, PerkinElmer®, Waltham, MA, USA). For non-specific binding, cells were treated, with the exception of primary antibody.

[2] = in vitro; settings: PAMPA, pH 7.4
[3] = in vitro; settings: human, Caco-2
[4] = biological target: T2, PDE3B (Homo sapiens, UniProt Q13370); test: BioPrint Profile Panel; type: biochemical; settings: Non-Kinase Enzyme, read-out: % of specific inhibition
T2 construct: purchased Eurofins Discovery (Cerep) BioPrint Profile Panel
Excerpt: (§1) The BioPrint® Profile Panel service offered by Eurofins Discovery (Poitiers, France) was chosen to perform selectivity analysis.

[5] = biological target: T3, CaMK2α (Homo sapiens, UniProt Q9UQM7); test: BioPrint Profile Panel; type: biochemical; settings: Kinase, read-out: % of specific inhibition
T3 construct: purchased Eurofins Discovery (Cerep) BioPrint Profile Panel
Excerpt: as §1

[6] = physchem; settings: 25 °C, pH 7.4, aqueous buffer, kinetic from dmso stock, pH 7.4, 4 h
[7] = tested on: TrkB receptor and downstream proteins (PLCγ1, Akt1, ERK1/2); test: Pharmacodynamics: immunoblot of hippocampus and frontal cortex; type: in vivo, BALB/c mice; settings: 30 min and 2 h after 50 mg/kg p.o.
Protocol: Compound treatment was stopped by lysing cells with N-PER™ Neuronal Protein Extraction Reagent (Thermo Fisher Scientific) containing 1 × PhosSTOP™ (Roche, Basel, Switzerland), 1 × Halt Protease Inhibitor Single-Use Cocktail (ThermoFisher Scientific) and 5 mM EDTA. The lysates were collected by scraping, and centrifuged (8000× g; 10 min at 4 °C), and the protein concentration was determined using a BCA Pierce kit (ThermoFisher Scientific). The lysates were stored at −80 °C until further processing. Samples containing 20 μg of protein were further denatured in 4 × Laemli Buffer with 5% β-mercaptoethanol at 95 °C for 5 min and electrophoresed on gels prepared using a 10% TGX Stain-Free™ FastCast™ Acrylamide Kit (Bio-Rad). Afterwards, the proteins were transferred (wet transfer, 100 V, 60 min) onto nitrocellulose membranes (GE Healthcare, Chicago, IL, USA), which were blocked in 5% BSA in TBS-T (TBS + 0.1% Tween20) for 2 h. […] After repeated washes (TBS-T), the proteins were detected with HRP-conjugated anti-rabbit antibodies (1:4000, RT, 2 h) (Cell Signaling Technology), and the blots were incubated with Clarity Max ECL Western Blotting Substrate (Bio-Rad). Blot images and chemiluminescence signals were captured using a ChemiDoc MP Imaging System, and densitometry values were calculated using the Image Lab software (Bio-Rad). […]

T1 sequence (Q63604 32-821): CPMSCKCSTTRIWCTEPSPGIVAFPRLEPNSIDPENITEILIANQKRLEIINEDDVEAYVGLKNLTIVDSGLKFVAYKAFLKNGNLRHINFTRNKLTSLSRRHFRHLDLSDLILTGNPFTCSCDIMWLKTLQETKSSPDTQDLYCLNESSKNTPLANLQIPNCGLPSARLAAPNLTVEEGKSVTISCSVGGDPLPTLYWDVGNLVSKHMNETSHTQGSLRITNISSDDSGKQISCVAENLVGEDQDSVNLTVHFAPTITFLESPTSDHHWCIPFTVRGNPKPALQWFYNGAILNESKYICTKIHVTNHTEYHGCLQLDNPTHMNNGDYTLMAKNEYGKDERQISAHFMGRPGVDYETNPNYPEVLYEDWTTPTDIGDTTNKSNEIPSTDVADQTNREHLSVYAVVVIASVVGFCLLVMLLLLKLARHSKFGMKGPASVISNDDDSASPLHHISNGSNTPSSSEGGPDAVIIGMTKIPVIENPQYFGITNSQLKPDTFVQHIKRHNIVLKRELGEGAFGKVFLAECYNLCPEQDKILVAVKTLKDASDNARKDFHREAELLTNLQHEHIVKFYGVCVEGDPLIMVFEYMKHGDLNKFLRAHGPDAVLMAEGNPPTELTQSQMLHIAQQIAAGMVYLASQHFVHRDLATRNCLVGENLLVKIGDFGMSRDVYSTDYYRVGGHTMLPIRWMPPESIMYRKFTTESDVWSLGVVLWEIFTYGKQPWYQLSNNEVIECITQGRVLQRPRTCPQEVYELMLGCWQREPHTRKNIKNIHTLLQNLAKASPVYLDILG
T3 sequence (Q9UQM7 whole entry): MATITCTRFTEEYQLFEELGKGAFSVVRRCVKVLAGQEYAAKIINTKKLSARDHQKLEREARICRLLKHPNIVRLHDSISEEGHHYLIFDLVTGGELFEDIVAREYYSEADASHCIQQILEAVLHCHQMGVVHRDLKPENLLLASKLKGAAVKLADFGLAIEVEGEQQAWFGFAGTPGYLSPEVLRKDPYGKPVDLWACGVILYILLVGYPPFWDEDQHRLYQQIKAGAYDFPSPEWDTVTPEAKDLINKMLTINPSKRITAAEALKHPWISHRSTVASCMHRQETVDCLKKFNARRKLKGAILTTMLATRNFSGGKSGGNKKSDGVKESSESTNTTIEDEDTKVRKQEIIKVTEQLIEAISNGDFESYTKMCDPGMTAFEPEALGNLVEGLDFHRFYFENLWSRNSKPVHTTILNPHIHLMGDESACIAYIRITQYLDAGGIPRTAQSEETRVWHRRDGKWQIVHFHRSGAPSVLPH
T2 sequence (Q13370 whole entry): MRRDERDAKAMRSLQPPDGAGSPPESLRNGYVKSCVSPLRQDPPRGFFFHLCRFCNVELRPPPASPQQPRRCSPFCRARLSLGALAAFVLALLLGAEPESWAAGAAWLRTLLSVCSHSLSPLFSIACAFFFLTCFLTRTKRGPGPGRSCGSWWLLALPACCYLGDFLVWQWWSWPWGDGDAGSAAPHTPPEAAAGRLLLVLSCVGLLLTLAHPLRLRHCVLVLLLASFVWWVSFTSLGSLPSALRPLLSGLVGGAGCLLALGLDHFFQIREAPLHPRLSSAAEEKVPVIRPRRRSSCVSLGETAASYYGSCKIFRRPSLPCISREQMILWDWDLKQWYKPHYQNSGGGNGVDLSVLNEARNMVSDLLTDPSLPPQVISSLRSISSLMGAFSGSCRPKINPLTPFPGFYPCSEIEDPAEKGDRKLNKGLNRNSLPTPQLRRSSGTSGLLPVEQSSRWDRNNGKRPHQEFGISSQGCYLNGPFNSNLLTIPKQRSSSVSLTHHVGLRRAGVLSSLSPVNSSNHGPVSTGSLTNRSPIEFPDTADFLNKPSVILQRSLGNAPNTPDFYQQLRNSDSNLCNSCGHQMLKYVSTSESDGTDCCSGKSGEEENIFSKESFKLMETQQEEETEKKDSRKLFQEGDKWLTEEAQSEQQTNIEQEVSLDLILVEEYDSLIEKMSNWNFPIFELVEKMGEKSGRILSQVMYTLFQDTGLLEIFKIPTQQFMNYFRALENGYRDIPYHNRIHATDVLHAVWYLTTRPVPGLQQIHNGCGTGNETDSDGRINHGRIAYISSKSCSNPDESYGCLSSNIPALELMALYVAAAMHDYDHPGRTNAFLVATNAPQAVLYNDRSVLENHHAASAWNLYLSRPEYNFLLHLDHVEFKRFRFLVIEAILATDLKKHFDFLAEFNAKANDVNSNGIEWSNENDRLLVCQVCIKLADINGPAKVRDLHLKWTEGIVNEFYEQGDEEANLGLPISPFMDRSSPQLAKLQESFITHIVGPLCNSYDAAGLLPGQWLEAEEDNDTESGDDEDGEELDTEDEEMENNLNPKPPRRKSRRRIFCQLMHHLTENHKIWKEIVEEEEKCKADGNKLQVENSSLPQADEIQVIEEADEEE

Q: What does the source list for `O=c1cc(-c2ccccc2)oc2c(O)c(O)ccc12` [7,8-DHF, 7,8-dihydroxyflavone]?
A: Orthosteric activity (induction of TrkB phosphorylation) [1]: failed to show any activity; also recorded: does not occur; Papp at 4 h, 10 μM [2]: 15.8 ×10⁻⁶ cm/s; Papp A→B at 2 h [3]: 22.8 ×10⁻⁶ cm/s; Papp B→A at 2 h [3]: 12.4 ×10⁻⁶ cm/s; inhibition at 10 µM [4]: 11%; inhibition at 10 µM [5]: -20%; solubility kinetic at 4 h [6]: 303 µM (≈ 77 µg/mL); Activation of the TrkB receptor (phosphorylation) [7]: did not observe any activation; also recorded: no effect; PLCγ1, Akt1, and ERK1/2 phosphorylation [7]: no impact
